According to patent US12319640B2, “Cyclic diones as herbicidal compounds” (SYNGENTA CROP PROTECTION AG, priority 2019, dated 2025):

What was measured:
Experiment in all cases: Glasshouse herbicide test, pre- and post-emergence
Type in all cases: in vivo
[1] = system: Echinochloa crus-galli (ECHCG); conditions: 250 g/h, evaluated after 13 days, five-point scale; for percentage damage caused to the plant, ECHCG POST: post-emergence; for percentage damage caused to the plant, ECHCG PRE: pre-emergence
Description: (§1) Seeds of a variety of test species are sown in standard soil in pots (Lolium perenne (LOLPE), Setaria faberi (SETFA), Alopecurus myosuroides (ALOMY), Echinochloa crus-galli (ECHCG), Avena fatua (AVEFA)). After cultivation for one day (pre-emergence) or after 8 days cultivation (post-emergence) under controlled conditions in a glasshouse (at 24/16° C., day/night; 14 hours light; 65% humidity), the plants are sprayed with an aqueous spray solution derived from the formulation of the technical active ingredient in acetone/water (50:50) solution containing 0.5% Tween 20 (polyoxyethelyene sorbitan monolaurate, CAS RN 9005-64-5). Compounds are applied at 250 g/h. The test plants are then grown in a glasshouse under controlled conditions in a glasshouse (at 24/16° C., day/night; 14 hours light; 65% humidity) and watered twice daily. After 13 days for pre and post-emergence, the test is evaluated for the percentage damage caused to the plant. The biological activities are shown in the following table on a five-point scale (5=80-100%; 4=60-79%; 3=40-59%; 2=20-39%; 1=0-19%).

Avena fatua (AVEFA) = conditions: 250 g/h, evaluated after 13 days, five-point scale; for percentage damage caused to the plant, AVEFA POST: post-emergence; for percentage damage caused to the plant, AVEFA PRE: pre-emergence
Description: as §1

Lolium perenne (LOLPE) = conditions: 250 g/h, evaluated after 13 days, five-point scale; for percentage damage caused to the plant, LOLPE POST: post-emergence; for percentage damage caused to the plant, LOLPE PRE: pre-emergence
Description: as §1

Setaria faberi (SETFA) = conditions: 250 g/h, evaluated after 13 days, five-point scale; for percentage damage caused to the plant, SETFA POST: post-emergence; for percentage damage caused to the plant, SETFA PRE: pre-emergence
Description: as §1

[2] = system: Alopecurus myosuroides (ALOMY); conditions: 250 g/h, evaluated after 13 days, five-point scale; for percentage damage caused to the plant, ALOMY POST: post-emergence; for percentage damage caused to the plant, ALOMY PRE: pre-emergence
Description: as §1

Row | SMILES | percentage damage caused to the plant, ECHCG POST [1] | percentage damage caused to the plant, ECHCG PRE [1] | percentage damage caused to the plant, AVEFA POST (Avena fatua (AVEFA)) | percentage damage caused to the plant, AVEFA PRE (Avena fatua (AVEFA)) | percentage damage caused to the plant, LOLPE POST (Lolium perenne (LOLPE)) | percentage damage caused to the plant, LOLPE PRE (Lolium perenne (LOLPE)) | percentage damage caused to the plant, SETFA POST (Setaria faberi (SETFA)) | percentage damage caused to the plant, SETFA PRE (Setaria faberi (SETFA)) | percentage damage caused to the plant, ALOMY POST [2] | percentage damage caused to the plant, ALOMY PRE [2]
1 | CNC(=O)C1CCC2(CC1)CC(=O)C(c1c(C)cc(-c3ncc(F)cc3F)cc1C)C(=O)C2 (centres unmarked) [Compound 1.023] | 5 (5=80-100%) | 5 (5=80-100%) | 5 (5=80-100%) | 5 (5=80-100%) | 5 (5=80-100%) | 5 (5=80-100%) | 5 (5=80-100%) | 5 (5=80-100%) | 5 (5=80-100%) | 5 (5=80-100%)
2 | CC(=O)NC1CCC2(CC1)CC(=O)C(c1c(C)cc(-c3ncc(F)cc3F)cc1C)C(=O)C2 (centres unmarked) [Compound 2.031] | 5 (5=80-100%) | 5 (5=80-100%) | 5 (5=80-100%) | 5 (5=80-100%) | 5 (5=80-100%) | 5 (5=80-100%) | 5 (5=80-100%) | 5 (5=80-100%) | 5 (5=80-100%) | 5 (5=80-100%)
3 | CC#Cc1cc(C)c(C2C(=O)CC3(CCC(NC(=O)CCC#N)CC3)CC2=O)c(C)c1 (centres unmarked) [Compound 2.013] | 5 (5=80-100%) | 5 (5=80-100%) | 5 (5=80-100%) | 5 (5=80-100%) | 5 (5=80-100%) | 5 (5=80-100%) | 5 (5=80-100%) | 5 (5=80-100%) | 5 (5=80-100%) | 3 (3=40-59%)
4 | Cc1cc(-c2ccc(C#N)cn2)cc(C)c1C1C(=O)CC2(CCC(C(=O)N(C)C)CC2)CC1=O (centres unmarked) [Compound 1.021] | 5 (5=80-100%) | 5 (5=80-100%) | 5 (5=80-100%) | 2 (2=20-39%) | 5 (5=80-100%) | 4 (4=60-79%) | 5 (5=80-100%) | 4 (4=60-79%) | 5 (5=80-100%) | 4 (4=60-79%)
5 | CNC(=O)C1CCC2(CC1)CC(=O)C(c1c(C)cc(-c3ccc(F)cc3)cc1C)C(=O)C2 (centres unmarked) [Compound 1.025] | 5 (5=80-100%) | 5 (5=80-100%) | 5 (5=80-100%) | 5 (5=80-100%) | 5 (5=80-100%) | 5 (5=80-100%) | 5 (5=80-100%) | 5 (5=80-100%) | 5 (5=80-100%) | 5 (5=80-100%)
6 | CC#Cc1cc(C)c(C2C(=O)CC3(CCC(C(=O)N(C)C)CC3)CC2=O)c(C)c1 (centres unmarked) [Compound 1.001] | 5 (5=80-100%) | 5 (5=80-100%) | 5 (5=80-100%) | 5 (5=80-100%) | 5 (5=80-100%) | 5 (5=80-100%) | 5 (5=80-100%) | 5 (5=80-100%) | 5 (5=80-100%) | 5 (5=80-100%)
7 | CC#Cc1cc(C)c(C2C(=O)CC3(CCC(NC(=O)c4ccccc4)CC3)CC2=O)c(C)c1 (centres unmarked) [Compound 2.019] | 5 (5=80-100%) | 5 (5=80-100%) | 5 (5=80-100%) | 5 (5=80-100%) | 5 (5=80-100%) | 5 (5=80-100%) | 5 (5=80-100%) | 5 (5=80-100%) | 5 (5=80-100%) | 5 (5=80-100%)
8 | CNC(=O)C1CCC2(CC1)CC(=O)C(c1c(C)cc(-c3ccc(C#N)cn3)cc1C)C(=O)C2 (centres unmarked) [Compound 1.020] | 5 (5=80-100%) | 5 (5=80-100%) | 5 (5=80-100%) | 5 (5=80-100%) | 5 (5=80-100%) | 5 (5=80-100%) | 5 (5=80-100%) | 5 (5=80-100%) | 5 (5=80-100%) | 5 (5=80-100%)
9 | CC#Cc1cc(C)c(C2C(=O)CC3(CCC(C(=O)N4CCS(=O)(=O)CC4)CC3)CC2=O)c(C)c1 (centres unmarked) [Compound 1.007] | 5 (5=80-100%) | 5 (5=80-100%) | 5 (5=80-100%) | 3 (3=40-59%) | 5 (5=80-100%) | 5 (5=80-100%) | 5 (5=80-100%) | 4 (4=60-79%) | 5 (5=80-100%) | 3 (3=40-59%)
10 | CC#Cc1cc(C)c(C2C(=O)CC3(CCC(NC(=O)C4CC4)CC3)CC2=O)c(C)c1 (centres unmarked) [Compound 2.004] | 5 (5=80-100%) | 5 (5=80-100%) | 5 (5=80-100%) | 5 (5=80-100%) | 5 (5=80-100%) | 5 (5=80-100%) | 5 (5=80-100%) | 5 (5=80-100%) | 5 (5=80-100%) | 5 (5=80-100%)
11 | Cc1cc(-c2ccc(C#N)cn2)cc(C)c1C1C(=O)CC2(CCC(NC(=O)C3CC3)CC2)CC1=O (centres unmarked) [Compound 2.029] | 5 (5=80-100%) | 5 (5=80-100%) | 5 (5=80-100%) | 4 (4=60-79%) | 5 (5=80-100%) | 5 (5=80-100%) | 5 (5=80-100%) | 5 (5=80-100%) | 5 (5=80-100%) | 2 (2=20-39%)
12 | CC#Cc1cc(C)c(C2C(=O)CC3(CCC(NC(=O)C(C)(C)C)CC3)CC2=O)c(C)c1 (centres unmarked) [Compound 2.005] | 5 (5=80-100%) | 5 (5=80-100%) | 5 (5=80-100%) | 5 (5=80-100%) | 5 (5=80-100%) | 5 (5=80-100%) | 5 (5=80-100%) | 5 (5=80-100%) | 5 (5=80-100%) | 5 (5=80-100%)
13 | CC#Cc1cc(C)c(C2C(=O)CC3(CCC(NC(=O)C(F)F)CC3)CC2=O)c(C)c1 (centres unmarked) [Compound 2.011] | 5 (5=80-100%) | 5 (5=80-100%) | 5 (5=80-100%) | 5 (5=80-100%) | 5 (5=80-100%) | 5 (5=80-100%) | 5 (5=80-100%) | 5 (5=80-100%) | 5 (5=80-100%) | 5 (5=80-100%)
14 | CC#Cc1cc(C)c(C2C(=O)CC3(CCC(NC(=O)COC)CC3)CC2=O)c(C)c1 (centres unmarked) [Compound 2.020] | 5 (5=80-100%) | 5 (5=80-100%) | 5 (5=80-100%) | 5 (5=80-100%) | 5 (5=80-100%) | 5 (5=80-100%) | 5 (5=80-100%) | 5 (5=80-100%) | 5 (5=80-100%) | 5 (5=80-100%)
